Measured values as given in PMC11219871, “Epigenetic-based differentiation therapy for Acute Myeloid Leukemia” (Nature Communications, 2024).
“And” between values parts separate entries of the source, which are not always exact repeats. Identical values can stand only once.

Experiments:
[1] = test system: primary AML patient samples; assay: Differentiation assay, CD11b flow cytometry in primary samples; assay type: cell-based, human; settings: for CD11b-positive cells (%): daily 48 h
Method: Next, the cells were washed twice with phosphate-buffered saline (PBS) and resuspended in 1X Binding Buffer at a concentration of 1 × 10^6 cells/mL. An 8-µL aliquot of APC-CD11b (BD Pharmingen, Franklin Lakes, NJ, USA) and 1 µL of FITC annexin-V (AV) (BD Pharmingen, Franklin Lakes, NJ, USA) antibodies were added and incubated for 15 min at room temperature in the dark. Finally, after the addition of 400 µL of 1X Binding Buffer to each tube, samples were collected on a BD FACSCanto flow cytometer (Becton Dickinson, San Jose, CA, USA) and analyzed using FlowJo software.
Peripheral blood (PB) specimens were obtained from preliminarily diagnosed AML patients who had not received any treatment before specimens were collected. All patients gave informed consent for their participation in this study, which was approved by the Clinical Research Ethics Committee of Clínica Universidad de Navarra. Written informed consent was obtained from each participant. PB was mixed with an ammonium chloride-potassium (ACK) buffer lysis (0.15 mol/L NH4Cl, 10 mmol/L KHCO3, 0.1 mmol/L ethylenediaminetetraacetic acid, pH 7.2) at a 1:2 volume ratio by gentle inversion, incubated for 10 min and centrifuged at 200 g for 10 min. The cell pellet was washed twice with PBS and finally resuspended in EGM2 medium (Cambrex Bioscience, Walkersville, MD). EGM2 contains 2% fetal calf serum, hydrocortisone, heparin, antibiotics, epidermal growth factor, human fibroblast growth factor, insulin-like growth factor, vascular endothelial growth factor, and ascorbic acid. The cells were plated at 1 × 10^6 cells/mL and treated daily with 200 and 500 nM of CM-444 and CM-1758 for 48 h. Next, the differentiation assay was performed as described above.

GF-D8 = assay: Cell proliferation assay: GI50; assay type: cell-based; settings: GF-D8, replicates 1-3
Method: (§1) Cell proliferation was analyzed using the CellTiter 96 Aqueous One Solution Cell Proliferation Assay (Promega, Madison, WI). This is a colorimetric method for determining the number of viable cells in proliferation. For the assay, suspension cells were cultured in triplicate at a density of 1 × 10^6 cells/mL in 96-well plates (100.000 cells/well, 100 µL/well), using only the 60 inner wells to avoid any border effects. After 48 h of treatment with different doses of each compound (0, 0.001, 0.01, 0.1, 0.2, 0.4, 0.6, 0.8, 1, 2, 3, 4, 5 and 10 µM), the plates were centrifuged at 800 g for 10 min followed by removal of the medium. Then, the cells were incubated with 100 μL/well of medium and 20 μL/well of CellTiter 96 Aqueous One Solution reagent for 1–3 h. The absorbance was recorded at 490 and 650 nm as reference wavelengths using 96-well plate readers until the absorbance of the control cells without treatment was approximately 0.8 AU. The background absorbance was measured in wells with only cell line medium and solution reagent. First, the average of the absorbance from the control wells was subtracted from all other absorbance values. Data were calculated as the percentage of total absorbance of treated cells/absorbance of non-treated cells. The GI50 values of the different compounds were determined using non-linear regression plots made with GraphPad Prism v5 software.

THP-1 = assay: Cell proliferation assay: GI50; assay type: cell-based
Method: as §1

MONO-MAC-6 = assay: Cell proliferation assay: GI50; assay type: cell-based
Method: as §1

NB-4 = assay: Cell proliferation assay: GI50; assay type: cell-based
Method: as §1

KASUMI-1 = assay: Cell proliferation assay: GI50; assay type: cell-based
Method: as §1

UT-7 = assay: Cell proliferation assay: GI50; assay type: cell-based
Method: as §1

TF-1 = assay: Cell proliferation assay: GI50; assay type: cell-based
Method: as §1

OCI-AML3 = assay: Cell proliferation assay: GI50; assay type: cell-based
Method: as §1

OCI-AML2 = assay: Cell proliferation assay: GI50; assay type: cell-based
Method: as §1

M-07e = assay: Cell proliferation assay: GI50; assay type: cell-based; settings: replicates 1-3
Method: as §1

HEL = assay: Cell proliferation assay: GI50; assay type: cell-based; settings: replicates 1-3
Method: as §1

In the case of COc1cc2nc(-c3ccc(C)o3)cc(NCC3CCN(c4ncc(C(=O)NO)cn4)CC3)c2cc1OC [CM-444, 2-[4-[[[6,7-dimethoxy-2-(5-methyl-2-furyl)-4-quinolyl]amino]methyl]-1-piperidyl]pyrimidine-5-carbohydroxamic acid], the “CD11b (%)” value ([1]; primary AML patient sample 1 (Figure 2C)) is reported as 46.62%, the “CD11b (%)” value ([1]; primary AML patient sample 2 (Figure 2C)) is reported as 31.74% and the “CD11b (%)” value ([1]; primary AML patient sample 3 (Figure 2C)) is reported as 20.47%. For the same compound, the “CD11b (%)” value ([1]; primary AML patient sample 4 (Figure 2C)) was 39.54%, the “CD11b (%)” value ([1]; primary AML patient sample 5 (Figure 2C)) was 32.14% and the “CD11b (%)” value ([1]; primary AML patient sample 6 (Figure 2C)) was 38.57%. For the same compound, the “CD11b (%)” value ([1]; primary AML patient sample 7 (Figure 2C)) was 49.19%, the “CD11b (%)” value ([1]; primary AML patient sample 8 (Figure 2C)) was 23.69% and the “CD11b-positive cells (%)” value ([1]; sample AML-1, 200 nM) was 35.2%. For the same compound, the “CD11b-positive cells (%)” value ([1]; sample AML-1, 500 nM) was 46.6%, the “CD11b-positive cells (%)” value ([1]; sample AML-2, 200 nM) was 16.8% and the “CD11b-positive cells (%)” value ([1]; sample AML-2, 500 nM) was 31.7%. The “CD11b-positive cells (%)” value ([1]; sample AML-3, 200 nM) was 12.3%, the “CD11b-positive cells (%)” value ([1]; sample AML-3, 500 nM) was 20.5% and the “CD11b-positive cells (%)” value ([1]; sample AML-4, 200 nM) was 20.8%. The “CD11b-positive cells (%)” value ([1]; sample AML-4, 500 nM) was 39.5%, the “CD11b-positive cells (%)” value ([1]; sample AML-5, 200 nM) was 20.2% and the “CD11b-positive cells (%)” value ([1]; sample AML-5, 500 nM) was 32.1%. For the same compound, the “CD11b-positive cells (%)” value ([1]; sample AML-6, 200 nM) was 29.7%, the “CD11b-positive cells (%)” value ([1]; sample AML-6, 500 nM) was 38.6% and the “CD11b-positive cells (%)” value ([1]; sample AML-7, 200 nM) was 32.9%. For the same compound, the “CD11b-positive cells (%)” value ([1]; sample AML-7, 500 nM) was 49.2%, the “CD11b-positive cells (%)” value ([1]; sample AML-8, 200 nM) was 15.3% and the “CD11b-positive cells (%)” value ([1]; sample AML-8, 500 nM) was 23.7%. For the same compound, the GI50 (GF-D8) was 7250 nM and 4120 nM and 3690 nM, the GI50 (THP-1; Homo sapiens, THP-1, 48 h) was > 10000 nM and the GI50 (THP-1; Homo sapiens, THP-1, replicates 1-3) was > 10000 nM. For the same compound, the GI50 (THP-1; THP-1, replicates 1-3) was > 10000 nM, the GI50 (MONO-MAC-6; Homo sapiens, MONO-MAC-6, 48 h) was 470 nM and the GI50 (MONO-MAC-6; MONO-MAC-6, replicates 1-3) was 215 nM and 607 nM and 588 nM. For the same compound, the GI50 (NB-4; Homo sapiens, NB-4, 48 h) was 668 nM, the GI50 (NB-4; Homo sapiens, NB-4, NB-4, replicates 1-3) was 658 nM and the GI50 (NB-4; NB-4, replicates 1-3) was 785 nM and 563 nM. The GI50 (KASUMI-1; Homo sapiens, Kasumi 1, 48 h, KASUMI-1, 48 h) was 668 nM, the GI50 (KASUMI-1; Homo sapiens, Kasumi 1, KASUMI-1, replicates 1-3) was 521 nM and the GI50 (KASUMI-1; KASUMI-1, replicates 1-3) was 698 nM and 786 nM. The GI50 (UT-7; Homo sapiens, UT7, 48 h, UT-7, 48 h) was 970 nM, the GI50 (UT-7; Homo sapiens, UT7, UT-7, replicates 1-3) was 875 nM and the GI50 (UT-7; UT-7, replicates 1-3) was 1070 nM and 965 nM. For the same compound, the GI50 (TF-1; Homo sapiens, TF-1, TF-1, replicates 1-3) was 3870 nM, the GI50 (TF-1; TF-1, replicates 1-3) was 3250 nM and 3500 nM and the GI50 (OCI-AML3; Homo sapiens, OCI-AML-3, OCI-AML3, 48 h) was > 10000 nM. The GI50 (OCI-AML3; Homo sapiens, OCI-AML-3, OCI-AML3, replicates 1-3) was > 10000 nM, the GI50 (OCI-AML3; OCI-AML3, replicates 1-3) was > 10000 nM and the GI50 (OCI-AML2; Homo sapiens, OCI-AML2, 48 h) was 640 nM. For the same compound, the GI50 (OCI-AML2; Homo sapiens, OCI-AML2, OCI-AML2, replicates 1-3) was 736 nM, the GI50 (OCI-AML2; OCI-AML2, replicates 1-3) was 574 nM and 612 nM and the GI50 (M-07e) was 1330 nM and 1200 nM and 1180 nM. For the same compound, the GI50 (HEL; Homo sapiens) was 1590 nM and the GI50 (HEL) was 1120 nM and 938 nM.
